Columns and labels:
Klebsiella pneumoniae = assay: Anti-infectious activity: protection of mice inoculated with Klebsiella pneumoniae; assay type: in vivo; settings: for Protection (%) / Survival at day 10 of infection No/total: 100 μg i.v. at day -1; for Protection (%): i.m. infection with 1.5 × 10^4 viable organisms, difference between percentages of survivors in treated and control group; for Survival at day 10 of infection No/total: infection by the intramuscular route with 1.5 × 10^4 viable organisms; for % protection: difference of percentages of survivors, treated vs control group
adrenalectomized mice = settings: 100 μg injected intravenously into five adrenalectomized mice
rabbits = settings: doses as high as 5 mg/kg of body weight
[1] = concentration as high as 100 μg/ml
[2] = 100 μg i.v. 24 H before infection, infection 3.10^4 K.p. i.m., 24 mice at day 0
[3] = 100 μg i.v. 24 H before infection, infection 4.10^3 K.p. i.v., 24 mice at day 0 (8 for glyceryl-mycolate)

| Molecule | Protection (%) (Klebsiella pneumoniae) | Survival at day 10 of infection No/total (Klebsiella pneumoniae) | also measured |
| --- | --- | --- | --- |
| 1-O(L-Ala-D-isoAsn-L-Ala)-glycerol-3-mycolate | 37% | 16/32 |  |
| 1-O(L-alanyl-D-isoglutaminyl-L-alanyl)glycerol-3-mycolate | 70% | 31/40 | Number of mice day 3 (Klebsiella pneumoniae; [2]): 23; Number of mice day 5 (Klebsiella pneumoniae; [2]): 20; Number of mice day 10 (Klebsiella pneumoniae; [2]): 17; % protection (Klebsiella pneumoniae; 100 μg i.v. 24 H before infection, infection 3.10^4 K.p. i.m.): 37%; Number of mice day 3 (Klebsiella pneumoniae; [3]): 21; Number of mice day 5 (Klebsiella pneumoniae; [3]): 21; Number of mice day 10 (Klebsiella pneumoniae; [3]): 21; % protection (Klebsiella pneumoniae; 100 μg i.v. 24 H before infection, infection 4.10^3 K.p. i.v.): 79%; death of adrenalectomized mice (adrenalectomized mice): did not cause death of any of them; hyperthermizing (pyrogenic) effect (rabbits): no hyperthermizing effect; Limulus test result [1]: negative |
| 1-O-(D-isoGln-L-Ala)-glycerol-3-mycolate hydrochloride | 47% | 28/49 |  |
| 1-O-(L-Ala-D-Gln-L-Ala)-glycerol-3-mycolate | 12% | 8/32 |  |
| 1-O-(L-Ala-D-isoGln-L-Ala)-glycerol-3-corynomycolate | 28% | 11/32 |  |
| 1-O-(L-alanyl)-glycerol-3-mycolate hydrochloride [1-O--(L--Ala)--glycerol-3-mycolate] | 35% | 16/40 |  |
| 1-O-(L-alanyl-L-isoglutaminyl-L-alanyl)-glycerol-3-mycolate hydrochloride | 12% | 7/32 |  |
| 1-O-(β-Ala-D-isoGln-L-Ala)-glycerol-3-mycolate hydrochloride | 25% | 12/32 |  |
| CCCCCCCCCCCCCCCCCC(=O)OCC(COC(=O)[C@H](C)NC(=O)CC[C@@H](NC(=O)[C@H](C)N)C(N)=O)OC(=O)CCCCCCCCCCCCCCCCC.Cl (stereo partly drawn) [1-O-(L-Ala-D-isoGln-L-Ala)-glycerol-2,3-distearate hydrochloride] | 12% | 5/24 |  |
| CCCCCCCCCCCCCCCCCC(=O)OCC(O)COC(=O)[C@H](C)NC(=O)CC[C@@H](NC(=O)[C@H](C)N)C(N)=O.Cl (stereo partly drawn) [1-O-(L-Ala-D-isoGln-L-Ala)-glycerol-3-stearate hydrochloride] | 8% | 4/24 |  |
| CCCCCCCCCCOC(=O)C(C)NC(=O)CCC(NC(=O)C(C)N)C(N)=O.Cl [DP--L--Ala--decyl ester, L-Ala-D-isoGln-L-Ala-n-decylester hydrochloride] | 0% | 1/24 |  |
| CCCCCCCCCCCCCCCOC(=O)[C@H](C)NC(=O)CC[C@@H](NC(=O)[C@H](C)N)C(N)=O.Cl [DP--L--Ala--pentadecylester, L-Ala-D-isoGln-L-Alan-n-pentadecylester hydrochloride] | 4% | 4/32 |  |
| glycerol-3-mycolate [Glyceryl-mycolate, reference compound] |  |  | Number of mice day 3 (Klebsiella pneumoniae; mouse, in vivo, iv): 1; Number of mice day 5 (Klebsiella pneumoniae; mouse, in vivo, iv): 1; Number of mice day 10 (Klebsiella pneumoniae; mouse, in vivo, iv): 1; anti-infectious activity (in words) (Klebsiella pneumoniae; mouse, in vivo, iv): devoid of significant activity |

— patent US4335111A, “Compounds associating peptidyl of aminoacyl residues to lipophilic groups and pharmaceutical compositions containing said new compounds” (priority 1978, dated 1982)
